{"source": "patent US20040171613A1", "about": "“Therapeutic agent for non-immediate type allergic diseases” (JAPAN TOBACCO INC., priority 2001, published 2004)", "key": {"[1]": {"test_system": "human basophils", "assay": "leukotriene production from human basophils", "assay_type": "cell-based", "conditions": "anti-human IgE antibody stimulation; IL-3 preincubation", "experimental": "To act them on cells, the solutions were further diluted to 10 μM to 0.01 μM (0.1% DMSO solution).\nUsing a syringe charged with 3.8% sodium citrate solution, 100 mL blood was obtained from human blood.\nUsing 10× HBSS (−) (10×Hank's balanced salt solution, GIBCO), Percoll (Amersham) and Milli Q water, 1.070 g/mL, 1.079 g/mL and 1.088 g/mL Percoll-HBSS (−) were prepared and layered, and the obtained blood was loaded on the layers and centrifuged at 300× g for 25 minutes. A cell fraction between the 1.070 g/mL Percoll-HBSS (−) layer and the 1.079 g/mL Percoll-HBSS (−) layer was recovered. 3 volumes of HBSS (−) was added to the recovered cell suspension and centrifuged at 300× g at 4° C. for 7 minutes. After centrifugation, the supernatant was discarded and the cells were rinsed once with HBSS (−). Thus recovered cell population was used as the basophils.\nThe basophils were prepared to 2.5×10^6 cells/mL with Tyrode solution, and 10 μg/mL recombinant human IL-3 (Genzyme/Techne) was added to a final concentration of 100 ng/mL. Immediately thereafter, 80 μL/well ([…]) of basophils were seeded on a round-bottom 96-well plate and were incubated in 5% CO2 at 37° C. for 30 minutes.\nAfter preincubation, 10 μL/well of the above-described test compound was added and incubated in 5% CO2 at 37° C. for 10 minutes. […]"}, "[2]": {"test_system": "antigen-induced asthma", "assay": "antigen-induced immediate type asthma, late-type asthma and airway hypersensitivity in guinea pigs", "assay_type": "in vivo, guinea pig", "conditions": "oral, compound A 10, 30, 100 mg/kg, positive controls 30 mg/kg", "experimental": "The test compound was further diluted to 20, 6 and 2 mg/mL on needed basis. As positive controls, 6 mg/mL pranlukast hydrate (extracted from Onon™ (Ono Pharmaceutical Co., Ltd.)) and 6 mg/mL prednisolone (Sigma) were similarly prepared.\nSensitization: Using an ultrasonic nebulizer (NE-U12; OMRON), a 6-weeks old male Hartley guinea pig (Kudo, Co., Ltd.) was continuously inhaled with 1% OVA (ovalbumin; Sigma)-containing physiological saline for 10 minutes per day for 8 consecutive days.\nAntigen challenge: One week after the last sensitization, 2% OVA was similarly inhaled for 5 minutes. 24 hours before and one hour after the OVA challenge, metyrapone-containing physiological saline (Aldrich, 10 mg/mL) was administered intravenously and 30 minutes before the OVA induction, pyrilamine-containing physiological saline (Sigma, 10 mg/kg) was administered intraperitoneally.\nDuring the 8 days of sensitization, the test compound was given one hour before the sensitization. On the day of the antigen challenge, the test compound was given one hour before the challenge. As solvent controls, the vehicle was similarly administered in accordance with OVA induction and physiological saline induction.\nAs positive controls, pranlukast hydrate was administered one hour before the challenge, while prednisolone was administered 16 hours and 2 hours before the challenge. The animals were fasted 16 to 18 hours before the oral administration.\nUsing total respiratory function analysis system (Pulmos-I, M.I.P.S. Company), the pre value was measured. Subsequently, specific airway resistance (hereinafter referred to as sRaw) per 100 breathes was measured one minute and 2, 4, 5, 6, 7 and 8 hours after the OVA challenge, and further once between 22 to 26 hours after the challenge, respectively. The average was used as sRaw at each measured time point. The increment ratio of sRaw was calculated by the following formula.\nIncrement ratio of sRaw (%)=[(sRaw at each measured time point −sRaw before the challenge)/(sRaw before the challenge)]×100\nTwenty-two to 26 hours after the antigen challenge, each of 0.0625, 0.125, 0.25, 0.5, 1 and 2 mg/mL solutions of physiological saline and acetylcholine (hereinafter referred to as ACh) were sequentially inhaled for one minute, until the sRaw was 2-fold or more to the baseline sRaw (sRaw after inhalation of physiological saline). Based on the ACh concentration and the concentration-resistance curve of sRaw, the ACh concentration required for the sRaw to achieve 100% increase from the baseline sRaw, i.e., PC100ACh was determined."}, "[3]": {"test_system": "IgE-dependent allergic dermatitis", "assay": "murine IgE-dependent allergic dermatitis (triphase ear swelling)", "assay_type": "in vivo, mouse", "conditions": "oral 10 mg/kg", "experimental": "A model was produced by passive sensitization of a mouse with IgE and repeated antigen challenge to trigger triphase (early phase, late phase and very late phase) dermatitis (Pharmacology, 60(2), 97-104, February 2000). Relation of mast cells and T cells, as well as invasion of eosinophils in local inflammatory sites is confirmed in these reactions.\nIn addition, as positive controls, similarly to the test compound, 1 mg/mL ketotifen fumarate (Sigma) and 3 mg/mL pranlukast hydrate (extracted from Onon™ (Ono Pharmaceutical Co., Ltd.)) were prepared. Pranlukast hydrate is used as a leukotriene inhibitor for therapeutic agents for asthma and allergic rhinitis. Ketotifen fumarate is used as a chemical mediator release suppressor for asthma, allergic rhinitis, eczema, dermatitis, urticaria, dermal pruritis and allergic conjunctivitis.\nDuring the period from the antigen application day to the start of the dosing of the test compound, in place of the test compound, only the solvent was orally administered at 10 mL/kg once a day.\nFIGS. 4 to 6 show the results of each measurement."}, "[4]": {"test_system": "2-AG-E-induced ear swelling", "assay": "effect of compound A on 2-AG-E-induced ear swelling", "assay_type": "in vivo, mouse", "experimental": "Therefore, 2-arachidonoylglycerol ether (2-AG-E), the stable form of an endogenous ligand candidate 2-arachidonoylglycerol, and a specific CB2 agonist HU-308 were examined whether they directly induce ear swelling and compared to the ear swelling induced by arachidonic acid (AA).\nSynthetically produced 2-AG-E and HU-308 were prepared with acetone to 1 or 10% (w/v) and 10% (w/v), respectively, and AA (Sigma) was prepared with acetone to 1.25% (w/v), on needed basis. 10 μL each of these substances was applied on each side of the left ear.\nOne hour later, 10 μL each of 10% (w/v) 2-AG-E was applied on each side of the left ear."}}, "data": [{"smiles": "CCCCCOc1c(OC)ccc2cc(C(=O)NCc3ccc4c(c3)OCO4)c(=O)[nH]c12", "note": "[Compound A, N-(benzo[1,3]dioxol-5-ylmethyl)-7-methoxy-2-oxo-8-pentyloxy-1,2-dihydroquinoline-3-carboxamide]", "values": [{"measurement": "production of leukotrienes (C4/D4/E4)", "setting": "[1]", "value": "suppressive action"}, {"measurement": "airway hypersensitivity (PC100ACh)", "setting": "[2]; 22 to 26 hours after antigen challenge", "value": "suppressed"}, {"measurement": "immediate type asthma response (sRaw immediately after antigen challenge)", "setting": "[2]", "value": "suppressed"}, {"measurement": "late asthmatic response (sRaw over 4 to 8 hours after antigen challenge)", "setting": "[2]", "value": "suppressed"}, {"measurement": "ear swelling, late phase", "setting": "[3]; 24 hours after antigen application", "value": "significantly suppressed ear swelling"}, {"measurement": "ear swelling, very late phase", "setting": "[3]; 8 days after antigen application", "value": "significantly suppressed ear swelling"}, {"measurement": "ear swelling, very late phase, delayed start of dosing", "setting": "[3]; administration started after the induction of the late phase", "value": "effect of compound A in the very late phase was observed"}, {"measurement": "ear swelling, early phase", "setting": "[3]; one hour after antigen application", "value": "significantly suppressed ear swelling"}, {"measurement": "ear swelling induced by the application of 10% 2-AG-E (AUC day 0 to day 8)", "setting": "[4]; oral 0.01, 0.1, 1, 10 mg/kg one hour before 2-AG-E, dose-dependent", "value": "suppressed ear swelling"}, {"measurement": "ear swelling induced by 10% 2-AG-E, significance", "setting": "[4]; oral 1 or 10 mg/kg", "value": "significant effect"}]}]}
